Experiment [1] concerns the target serotonin (5-HT1D subtype) receptor (Homo sapiens, UniProt P28221). In words: Radioligand competition binding assay, 5-HT1D. The conditions noted are these: 10 μM in duplicate, read-out: % inhibition of control specific binding. The procedure:
(§1) DA001 was evaluated against 109 receptor binding assays and 17 enzyme assays, comprising of selective, central and peripheral therapeutically-relevant targets. Radioligand competition assays were conducted whereby DA001 was tested at one concentration (10 μM) in duplicate. […] It could compete with the radioligand [^125I-NDP-alpha-melanocyte-stimulating hormone (α-MSH)] binding for MC1 and MC4 but not MC3 and MC5 nor the related family, the melanin concentrating hormone receptors (MCH1 and MCH2).

Experiment [2] has as its system ischemic rats. In words: MCAO (middle carotid artery occlusion) transient focal ischemia model. It is filed as in vivo. Here is the method: The MCAO (middle carotid artery occlusion model) was performed to investigate the protective effects of DA001 on the brain when the brain was exposed to transient focal ischemia (or lack of oxygen) such as during a stroke. Hemispheric brain swelling and infarct volume (the area of dead tissue caused by inadequate blood supply) was measured for test subjects treated with the compound 6 hours after ischemia and compared to that of the control group.
The MCAO (middle carotid artery occlusion model) was performed to investigate the protective effects of DA001 on the brain when exposed to transient focal ischemia (or lack of oxygen) such as during a stroke. Neurological scores, hemispheric brain swelling and infarct volume (the area of dead tissue caused by inadequate blood supply) was measured in test subjects treated with the compound 6 hours after ischemia and compared to that of the control group. DA001 effectively attenuated neurological deficits, reduced infarct volume (the area of dead tissue caused by inadequate blood supply), especially in brain slices number 3 to 5, and the extent of edema during ischemic conditions as shown in FIG. 2.

For experiment [3], the target named is human MC1 receptor (Homo sapiens, UniProt Q01726). In words: Cellular receptor functional assay (cAMP), MC1. In kind it is cell-based. Here is the method: (§2) DA001 inhibits ligand binding to MC1 and MC4 receptors. To determine whether the inhibitory effect is due to agonist or antagonist activity, DA001 was evaluated at 6 or 8 concentrations in cellular assays assessing receptor function. Upon ligand binding, the MC1 or MC4 receptor is activated which leads to an increase in intracellular cyclic AMP. […] DA001 alone is unable to induce cAMP increase (blue square dots). […] DA001 was further evaluated with MC2 receptor functional assay. Upon ligand binding, the MC2 receptor is activated which leads to an increase in intracellular cyclic AMP.
Chain of human MC1 receptor (Q01726 whole entry): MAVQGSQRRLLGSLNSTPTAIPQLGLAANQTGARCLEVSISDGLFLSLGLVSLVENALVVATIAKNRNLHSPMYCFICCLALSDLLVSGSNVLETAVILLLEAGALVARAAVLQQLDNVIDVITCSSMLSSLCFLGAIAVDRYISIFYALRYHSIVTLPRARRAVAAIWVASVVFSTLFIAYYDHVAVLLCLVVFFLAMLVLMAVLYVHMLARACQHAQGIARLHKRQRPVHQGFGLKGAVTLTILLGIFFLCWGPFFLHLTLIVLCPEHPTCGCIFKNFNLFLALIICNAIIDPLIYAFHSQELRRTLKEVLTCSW

Experiment [4] addresses T1, human MC4 receptor (Homo sapiens, UniProt P32245). In words: Radioligand competition binding assay, MC4. The procedure:
as §1
To determine the IC50 for DA001 to inhibit α-MSH binding on MC1 and MC4 receptor, the compound was further characterized by a dose-dependent study. DA001 was evaluated with 8 concentrations on MC1 and MC4 receptor binding assays.
The specific ligand binding to the receptors is defined as the difference between the total binding and the nonspecific binding determined in the presence of an excess of unlabelled ligand. The results are expressed as a percent of control specific binding [(measured specific binding/control specific binding)×100] and as a percent inhibition of control specific binding {100−[(measured specific binding/control specific binding)×100]} obtained in the presence of DA001. The IC50 values (concentration causing a half-maximal inhibition of control specific binding) and Hill coefficients (nH) were determined by non-linear regression analysis of the competition curves generated with mean replicate values using Hill equation curve fitting (Y=D+[(A−D)/(1+(C/C50)nH)], where Y=specific binding, D=minimum specific binding, A=maximum specific binding, C=compound concentration, C50=IC50, and nH=slope factor). This analysis was performed using a software developed at Cerep (Hill software) and validated by comparison with data generated by the commercial software SigmaPlot® 4.0 for Windows® (© 1997 by SPSS Inc.).

Experiment [5] has as its target T1, human MC4 receptor. Briefly: Cellular receptor functional assay (cAMP), MC4. It is filed as cell-based. Particulars: cells over-expressing MC4. Here is the method: FIG. 1. […] DA001 alone is unable to induce cAMP increase (blue square dots).
as §2

Experiment [6] concerns BALB/c mice. In words: Murine model of oxazolone-induced ear edema. It is filed as in vivo. Here is the method: This is a contract research performed by Washington Biotechnology Inc., Columbia, Md., protocol 1041. On day 0, 42 BALB/c mice (female, Harlan Sprague-Dawley, 5-6 weeks) were shaved on the ventral surface of the right ear. 100 μl of the 5% oxazolone solution (Sigma) was then applied to the saved ear. The treated mice were then returned to the cage and kept for additional 6 days. On day 7, the mice were weighed and dosed orally with 10 ml/kg water or DA021 at either 30 mg/kg or 100 mg/kg or topically applied on both sides of both ears with 25 μl betamethasone. Thirty minutes after oral dosing, 5 μl of 3% oxazolone was applied to both sides of the right ear and 5 μl of acetone was applied to both sides of the contralateral ear. Twenty-four hours after 3% oxazolone/acetone application, the mice were euthanized, the ears removed and weighed.
To evaluate the efficacy and potency of DA021 in acute inflammation, an oxazolone-induced ear edema model was carried out in mice. Oxazolone-induced ear edema model is a commonly used skin inflammatory animal model. Oxazolone (OA) is an allergen that induces immunological responses that lead to surface edema. […] Betamethasone (BMS) which was used as a positive control, is a corticosteroid that is used as an anti-itching cream and other anti-inflammatory remedies.
Mice were then treated with betamethasone (BMS, mg, topical) or DA021 (mg/kg, p.o.) and the ears were removed and weighed. N=10 per group, significance (p-value) was calculated versus OA+vehicle using the Student's T-test, *=P≦1×10^−7, #=P≦1×10^−12.

The target in experiment [7] is DP receptor (Homo sapiens, UniProt Q13258). Briefly: Radioligand competition binding assay, DP. The conditions noted are these: target PGD, compound at 10 μM in duplicate, read-out: % inhibition of control specific binding. The procedure: To determine the targets of DA compounds, the compound was assessed in binding assays for the family of prostanoid receptors. Both compounds were tested at a single concentration (10 μM) in duplicate. DA001 and DA021 inhibit the ligand binding of prostaglandin E2 receptors EP1, EP2 and EP4 and moderately to prostaglandin (PGF) to its receptor (FP), but not prostaglandin I (PGI2), thromoboxane A and prostaglandin D2 to their receptors.
Chain of DP receptor (Q13258 whole entry): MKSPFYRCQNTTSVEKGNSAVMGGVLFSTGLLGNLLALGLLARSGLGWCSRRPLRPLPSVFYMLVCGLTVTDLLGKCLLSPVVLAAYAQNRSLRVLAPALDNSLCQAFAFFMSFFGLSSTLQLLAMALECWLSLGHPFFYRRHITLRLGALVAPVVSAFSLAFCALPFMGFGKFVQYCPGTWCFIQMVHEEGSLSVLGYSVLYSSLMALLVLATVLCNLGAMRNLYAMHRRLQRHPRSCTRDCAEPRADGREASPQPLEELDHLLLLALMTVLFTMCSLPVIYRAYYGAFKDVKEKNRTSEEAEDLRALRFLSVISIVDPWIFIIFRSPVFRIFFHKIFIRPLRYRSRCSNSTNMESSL
In general terms: Displacement assays read how much labelled ligand stays bound in the presence of the test substance.

Broadly, the inhibition is the change of the read-out against control, counted positive when it falls. As a reminder, the Kb is the affinity of an antagonist, worked out from how it opposes an agonist. Low values mean higher antagonist affinity, high ones lower antagonist affinity. One may read the IC50 as the concentration needed to halve the response being measured. What is called Ki is a measure of affinity in units of concentration, obtained from inhibition or displacement.

T1 sequence (P32245 whole entry): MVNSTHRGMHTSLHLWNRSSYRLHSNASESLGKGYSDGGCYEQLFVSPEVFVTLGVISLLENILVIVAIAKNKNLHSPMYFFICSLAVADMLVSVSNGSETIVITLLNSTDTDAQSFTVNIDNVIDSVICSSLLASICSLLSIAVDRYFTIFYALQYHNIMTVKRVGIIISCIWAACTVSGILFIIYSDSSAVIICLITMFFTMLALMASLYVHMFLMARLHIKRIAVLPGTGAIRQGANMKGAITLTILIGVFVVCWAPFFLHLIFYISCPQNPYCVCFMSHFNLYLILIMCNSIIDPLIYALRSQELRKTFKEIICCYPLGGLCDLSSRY
Chain of serotonin (5-HT1D subtype) receptor (P28221 whole entry): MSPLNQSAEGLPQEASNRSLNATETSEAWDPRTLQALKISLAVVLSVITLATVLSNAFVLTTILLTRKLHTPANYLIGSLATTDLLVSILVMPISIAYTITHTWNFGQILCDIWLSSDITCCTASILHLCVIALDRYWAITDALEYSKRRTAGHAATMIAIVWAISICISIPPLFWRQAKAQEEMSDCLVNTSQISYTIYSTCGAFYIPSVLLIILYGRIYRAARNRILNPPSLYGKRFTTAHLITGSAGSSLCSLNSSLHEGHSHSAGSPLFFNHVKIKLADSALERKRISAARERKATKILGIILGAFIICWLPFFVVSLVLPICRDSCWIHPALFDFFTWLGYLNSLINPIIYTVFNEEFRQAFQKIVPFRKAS

For the compound `C=C(C)[C@@H]1CC[C@]2(C(=O)O)CC[C@]3(C)C(CC[C@@H]4[C@@]5(C)CC[C@H](O[C@@H]6OC[C@H](O)[C@H](O)[C@H]6O[C@@H]6O[C@@H](C)[C@H](O)[C@@H](O)[C@H]6O)[C@@](C)(CO)[C@@H]5CC[C@]43C)[C@@H]12` (stereo partly drawn) [DA001, 3-O-[α-L-rhamnopyranosyl-(1→2)-α-L-arabinopyranosyl]-3,23-dihydroxy-20(29)-lupen-28-oic acid], the inhibition at 10 µM in experiment [1] came out at 30%. In experiment [2] (12.6 mg/kg and 25.2 mg/kg orally 6 h post-ischemia), the “total infarction of MCAO rats” value is “significantly decreased”. Also, in experiment [2] (42 mg/kg), the extent of edema result is “reduced the extent of edema”. Moreover, the “neurological scores of ischemic rats” value in experiment [2] (12.6 and 25.2 mg/kg orally 6 h post-ischemia) is “significantly improved”. The same compound had a Kb in experiment [3] (antagonist effect at human MC1 receptor) of 5.3 µM. The concentration for half-maximal inhibition (IC50) in experiment [3] (inhibition of cAMP increase by NDP-α-MSH, cells over-expressing MC1, read-out: IC50, antagonist effect) amounted to 50 µM; in experiment [4] (8 concentrations) it was 6.8 µM; in experiment [5] (inhibition of cAMP increase by NDP-α-MSH, read-out: IC50, antagonist effect), 17 µM. Moreover, in experiment [4], the Ki stood at 6.3 µM. This compound also returned a nH in experiment [4] (Hill coefficient) of 1.3. In experiment [5] (compound alone), the “agonist effect (cAMP increase by compound alone)” value is reported as “did not induce an increase in cAMP”.
Consider `C=C(C)[C@@H]1CC[C@]2(/C=N/O)CC[C@]3(C)C(CCC4[C@@]5(C)CCC(=O)[C@@](C)(CO)[C@@H]5CC[C@]43C)C12` (stereo partly shown) [DA021], for which, in experiment [6] (30 mg/kg po), the “Change in Ear Weight (mg), Average” value is given as 48.3 mg and the “Change in Ear Weight, % Inhibition” value is 31.7%. For the same compound, in experiment [6] (100 mg/kg po), the “Change in Ear Weight (mg), Average” value is given as 33.3 mg and the “Change in Ear Weight, % Inhibition” value amounted to 52.9%. Moreover, in experiment [7], the inhibition at 10 µM is 0%.

Values taken from US9029414B2, “Triterpenoid compounds and methods of use thereof” (Biotechnology Research Corporation, priority 2008, dated 2015).
